The results in this text go back to patent US7332631B2, “Fc receptor modulating compounds and compositions” (Trillium Therapeutics Inc., priority 2002, dated 2008).

Series [1] has as its target T1, FcγRIIa (Homo sapiens, UniProt P12318).
T1 construct: endogenous in cells; host or cells: washed human platelets
T1 sequence (P12318 34-317): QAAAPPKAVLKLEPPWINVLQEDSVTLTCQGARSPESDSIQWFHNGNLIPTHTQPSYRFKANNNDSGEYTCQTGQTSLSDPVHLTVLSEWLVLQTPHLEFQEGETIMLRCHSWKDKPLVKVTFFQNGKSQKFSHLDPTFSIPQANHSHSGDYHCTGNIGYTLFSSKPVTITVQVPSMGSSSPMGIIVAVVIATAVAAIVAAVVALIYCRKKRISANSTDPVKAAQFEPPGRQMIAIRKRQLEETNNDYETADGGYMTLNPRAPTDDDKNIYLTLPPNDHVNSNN
Briefly: FACS assay of activation of human platelets by heat aggregated IgG (HAGG), P-Selectin expression. Particulars: for % Inhibition of platelet Activation / inhibition at 500 µg/mL: primary screen, single concentration of inhibitor 500 μg/ml, HAGG 40 μg/ml, several values = repeat determinations; for inhibition at 500 µg/mL: read-out: % Inhibition of platelet Activation. The series is classed as cell-based. Here is the method:
The compounds of Table 1 were screened in a FcγRIIa dependent platelet activation assay and/or aggregation assay where platelets are activated using heat aggregated human immunoglobulin G as an immune complex. Compounds inhibiting this process were then tested for specificity. Note that the platelets were used as the target as the only Fc receptor expressed on these cells is FcγRIIa. In addition, they are very difficult to inhibit and therefore this assists in identifying compounds with reasonable potency.
The compounds of the present invention were initially screened in a rapid FACS screening assay, measuring activation of human platelets by heat aggregated IgG. […] In addition, platelets are very sensitive to a range of stimuli and activate rapidly. Activation is measured by the appearance of the protein P-Selectin on the platelet membrane after exposure to various stimuli. The stimuli were heat aggregated with IgG and as specificity controls, collagen or thrombin.
Specifically, this assay utilises washed platelets and heat aggregated IgG (HAGG) as an immune complex (agonist) to activate and crosslink FcγRIIa. Because this is a primary screen a single concentration of small molecule inhibitor is added to the platelets (final concentration of 500 μg/ml) and allowed to incubate for 30 minutes. Heat Aggregated IgG (HAGG) (40 μg/ml) is then added to the platelets and allowed to incubate for 30 minutes. Paraformaldehyde is added to the platelets for 30 minutes prior to washing. Anti-P-Selectin (FITC conjugated) and Anti-CD41 (PE conjugated) are added and the platelets are then screened by FACS to detect expression of P-Selectin, a marker of platelet activation and CD41, which is expressed by all viable platelets.
In summary, for each compound tested the activity was measured as a function of inhibition of platelet activation and/or platelet aggregation as detailed above. Specificity is defined as specific inhibition of immune complex induced platelet activation but with no effect on arachidonic acid induced activation (and where tested no effect on thrombin, collagen or ADP induced activation).
The compounds were titrated and evaluated for capacity to prevent aggregated IgG induction of p-selectin expression as a measure of activation.
A general note: A flow cytometer gives signals particle by particle.

Series [2] has as its target HSA-FcγRIIa (Homo sapiens, UniProt P02768+P12318). Briefly: ELISA Inhibition Assay: inhibition of human IgG complex binding to plate-bound HSA-FcγRIIa. Particulars: HSA-FcγRIIa 5 μg/ml on plate, human IgG complex 0.2 μg/ml. Here is the method: The compounds may also be screened using an ELISA inhibition assay to detect the blockade of IgG interaction with FcγRIIa.
Compounds were also screened using an ELISA Inhibition Assay. Human Serum Albumin genetically fused to FcγRIIa (HSA-FcγRIIa) was bound to an ELISA plate at a concentration of 5 μg/ml. The small molecule inhibitors were titrated from a starting concentration of 5 mg/ml and allowed to incubate in the presence of the receptor. A human IgG complex (0.2 μg/ml) is then added to the plate and the extent of inhibition of IgG binding by the small molecule inhibitors was measured using HRP labelled anti-human antibody.

The mark [3] stands for this setting: washed human platelets, HAGG as agonist, several values in a cell = repeat determinations, '(ICnn)' after a '<' bound = inhibition level at that concentration, read-out: Concentration at 50% inhibition of platelet activation by HAGG.
Setting [4] is: in vitro testing, summary table, read-out: IC50 Platelet Inhibition.

For orientation: melting point means the temperature, or range, at which the solid turns liquid. The term inhibition denotes the share of the control response that was lost under treatment.

“And” between values parts separate entries of the source, which are not always exact repeats. Identical values can stand only once. Like-named read-outs stand apart in the source and are kept apart here. Peptide text beside a SMILES is read from it. * marks the point of attachment. Cbz = O=C(OCc1ccccc1)*

HSA-FcγRIIa, sequence (P02768+P12318 fused): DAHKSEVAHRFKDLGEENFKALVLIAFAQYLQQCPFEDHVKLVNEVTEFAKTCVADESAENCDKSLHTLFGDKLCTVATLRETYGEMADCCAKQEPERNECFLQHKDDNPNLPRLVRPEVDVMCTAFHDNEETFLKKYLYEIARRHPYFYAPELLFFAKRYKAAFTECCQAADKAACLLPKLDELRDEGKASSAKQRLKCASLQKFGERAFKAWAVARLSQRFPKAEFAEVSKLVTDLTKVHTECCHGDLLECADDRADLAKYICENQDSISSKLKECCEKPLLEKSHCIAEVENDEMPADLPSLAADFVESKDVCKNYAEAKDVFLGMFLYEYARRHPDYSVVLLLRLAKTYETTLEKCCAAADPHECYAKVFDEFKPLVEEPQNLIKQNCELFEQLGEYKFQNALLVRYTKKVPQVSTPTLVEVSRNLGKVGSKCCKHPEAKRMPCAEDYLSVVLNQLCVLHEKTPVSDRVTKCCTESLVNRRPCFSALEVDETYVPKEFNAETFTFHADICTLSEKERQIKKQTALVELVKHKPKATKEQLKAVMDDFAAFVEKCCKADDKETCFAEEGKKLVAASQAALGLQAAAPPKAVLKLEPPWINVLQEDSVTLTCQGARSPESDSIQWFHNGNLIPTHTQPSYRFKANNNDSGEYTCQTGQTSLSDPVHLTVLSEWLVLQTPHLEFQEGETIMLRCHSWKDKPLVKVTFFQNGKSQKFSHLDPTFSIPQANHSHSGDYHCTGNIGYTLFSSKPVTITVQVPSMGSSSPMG

`COc1ccc2sc(C(=O)O)c(OC3CCCCC3)c2c1` [Compound 276, 3-Cyclohexyloxy-5-methoxy-1-benzo[b]thiophene-2-carboxylic acid] yielded a melting point of 176 to 177 °C. In addition, in series [1] (setting [3]), the IC50 is < 165 µM and 170 µM.

`N#Cc1cccc(C(=O)CSc2ccc(C(=O)O)cc2)c1` [Compound 385, 4-{[2-(3-cyanophenyl)-2-oxoethyl]thio}benzoic acid]: the IC50 stood at 360 µM in series [1] (setting [4]), 360 µM in series [1] (setting [3]) and 6800 µM in series [2].

For the molecule `O=C(O)c1ccc(SCC(=O)c2ccccc2)cc1` [Compound 384, 4-[(2-oxo-2-phenylethyl)thio]benzoic acid], the IC50 is 170 µM in series [1] (setting [4]), 170 µM in series [1] (setting [3]) and 4800 µM in series [2].

In the case of `O=C(O)c1cccc(SCC(=O)c2ccccc2)c1` [Compound 294], the IC50 in series [1] (setting [4]) is 80 µM; in series [1] (setting [3]), < 190 µM and 135 µM and 155 µM and 80 µM; in series [2], 6000 µM.

On to `O=C(O)CCNC(=O)OCc1ccccc1` [Compound 233], for which, in series [1], the “% Inhibition of platelet Activation” value stood at 74%.

`O=C(O)c1sc2cc([N+](=O)[O-])ccc2c1Cl` [Compound 026, 3-Chloro-6-nitro-1-benzo[b]thiophene-2-carboxylic acid]: the figures for the IC50 in series [1] (setting [4]), in series [1] (setting [3]) and in series [2] were 780 µM, 100 µM and 17500 µM, respectively.

Turning to `N#CCCCSc1cccc(C(=O)O)c1` [Compound 239, 3-(3-Cyanopropylsulfanyl)benzoic acid], the IC50 in series [1] (setting [4]) and in series [1] (setting [3]) was 330 µM each time. Moreover, the “IC50 ELISA” value in series [2] is listed as “-'ve”.

For the molecule `O=C(O)c1cccc(C(=O)CSCC(=O)c2cccc(C(=O)O)c2)c1` [Compound 292, 1-(3-Carboxyphenyl)-2-[2-(3-carboxyphenyl)-2-oxoethylsulfanyl]ethanone], the IC50 came out at 520 µM in series [1] (setting [4]), 520 µM in series [1] (setting [3]) and 5600 µM in series [2].

On to `O=C(O)c1ccc(C(=O)CSc2ccccc2C(=O)O)cc1` [Compound 410, 2-{[2-(4-carboxyphenyl)-2-oxoethyl]thio}benzoic acid], for which the IC50 in series [1] (setting [4]) turned out to be 50 µM; in series [1] (setting [3]) it was 50 µM; in series [2], 6900 µM.

`O=C(O)c1cccc(CNc2cccc(C(=O)O)c2)c1` [Compound 100]: in series [1], the inhibition at 500 µg/mL turned out to be 7%.

As to `C/C(=C1\SC(=S)N(CC(=O)O)C1=O)c1cccc(O)c1` [Compound 374, 5-(-Methyl-3-hydroxybenzylidine)rhodanine-3-acetic acid], the IC50 amounted to 220 µM in series [1] (setting [4]) and 2000 µM in series [2].

For `CC(NC(=O)CNC(=O)CNC(=O)OCc1ccccc1)C(=O)O` (stereo not drawn) [Compound 235], the “% Inhibition of platelet Activation” value in series [1] was 30% and 49% and 54%.

For the molecule `O=C(/C=C/c1ccccc1C(=O)O)c1ccc[nH]1` [Compound 238, 2-[3-Oxo-3-(1H-pyrrol-2-yl)propenyl]benzoic acid], the IC50 in series [1] (setting [4]) is 270 µM; in series [1] (setting [3]), 270 µM; in series [2] it was 17500 µM.

Regarding `O=C(O)/C=C/c1ccc(OCCc2ccccc2)cc1` [Compound 299, 4-Phenethyloxycinnamic acid], the IC50 in series [1] (setting [4]) was found to be 410 µM; in series [1] (setting [3]), 410 µM; in series [2], 7200 µM.

As to `O=C(Nc1cccc(C(=O)O)c1)Nc1cccc(C(=O)O)c1` [Compound 192], in series [1], the “% Inhibition of platelet Activation” value is on record as 19% and the inhibition at 500 µg/mL was 22%.

On to `O=C(O)c1cccc(/C=N/c2cccc(C(=O)O)c2)c1` [Compound 076], for which the inhibition at 500 µg/mL in series [1] was determined as 13%.

With `O=C(O)CNC(=O)CNC(=O)OCc1ccccc1` [Compound 236] (Cbz-Gly-Gly-OH), in series [1], the “% Inhibition of platelet Activation” value was 34% and 33% and 65%.

Consider `O=C(O)c1cccc([S+]([O-])c2cccc(C(=O)O)c2)c1` [Compound 032, 3-[(3-Carboxyphenyl)sulfinyl]benzenecarboxylic acid], for which the “IC50 Platelet Inhibition” value in series [1] (in vitro testing, summary table) is given as “-'ve”. In addition, the results for the IC50 in series [1] (setting [3]) and in series [2] were 70 µM and 2800 µM, respectively.

Take `N#Cc1cccc(C(=O)CSc2cccc(C(=O)O)c2)c1` [Compound 216, 3-[2-(3-Cyanophenyl)-2-oxoethylsulfanyl]benzoic acid]: the IC50 was determined as 250 µM in series [1] (setting [4]), 240 µM in series [1] (setting [3]) and 3000 µM in series [2].

On to `O=C(O)c1cccc(/C=N/c2cc(C(=O)O)cc(C(=O)O)c2)c1` [Compound 114], for which the inhibition at 500 µg/mL in series [1] was 8%.

Turning to `O=C(O)c1cccc(/C=N/Nc2cccc(C(=O)O)c2)c1` [Compound 200], the “% Inhibition of platelet Activation” value in series [1] was 98% and 54% and 95%.

For `O=C(O)c1sc2ccccc2c1OCc1ccccc1` [Compound 333, 3-Benzyloxy-1-benzo[b]thiophene-2-carboxylic acid], the IC50 in series [1] (setting [4]) amounted to 520 µM; in series [1] (setting [3]), 520 µM; in series [2], 1600 µM.

On to `COc1cccc2c(OC(C)C)c(C(=O)Nc3nnn[nH]3)sc12` [Compound 090, 3-isopropoxy-7-methoxy-N-(1H-1,2,3,4-tetrazol-5-yl)-1-benzo[b]thiophene-2-carboxamide], for which the IC50 in series [1] (setting [3]) was 195 µM and 295 µM.

On to `O=C(O)c1cccc(C(=O)CSc2ccccc2C(=O)O)c1` [Compound 412, 2-{[2-(3-carboxyphenyl)-2-oxoethyl]thio}benzoic add], for which the results for the IC50 in series [1] (setting [4]), in series [1] (setting [3]) and in series [2] were 60 µM, 60 µM and 7000 µM, respectively.

`O=C(O)CCCCCNC(=O)OCc1ccccc1` [Compound 197]: the IC50 was found to be 1300 µM in series [1] (setting [4]) and 9400 µM in series [2].

`N#Cc1cccc(C(=O)CSc2ccccc2C(=O)O)c1` [Compound 411, 2-{[2-(3-cyanophenyl)-2-oxoethyl]thio}benzoic acid]: the results for the IC50 in series [1] (setting [4]), in series [1] (setting [3]) and in series [2] were 180 µM, 180 µM and 7800 µM, respectively.

As for `O=C(O)c1ccc(/C=N/c2cccc(C(=O)O)c2)cc1` [Compound 081], in series [1], the inhibition at 500 µg/mL was 83%.

On to `O=C(O)c1c(Cl)c2ccc([N+](=O)[O-])cc2[s+]1[O-]` (stereo not drawn) [Compound 044, 3-Chloro-6-nitro-1-benzo[b]thiophene-S-oxo-2-carboxylic acid], for which the IC50 in series [1] (setting [3]) is 230 µM.

As for `C/C(=C(/S)C(=O)NCC(=O)O)c1cccc(O)c1` [Compound 383, [3-(3-Hydroxyphenyl)-2-mercaptobut-2-enoylamino]acetic add], the IC50 in series [1] (setting [4]) worked out at 280 µM; in series [1] (setting [3]), 280 µM; in series [2] it was 1000 µM.

For the molecule `Cc1c(C(C)(C)C)cc(/C=C(\C#N)C(=O)O)cc1C(C)(C)C` [Compound 350], the IC50 in series [1] (setting [4]) was determined as 290 µM; in series [1] (setting [3]) it was 290 µM; in series [2], 1300 µM.

Take `O=C(O)c1ccc(C(=O)/C=C/c2ccccc2)cc1` [Compound 237, 4-[(2E)-3-phenylprop-2-enoyl]benzoic acid]: the IC50 turned out to be 40 µM in series [1] (setting [4]), 40 µM in series [1] (setting [3]) and 6200 µM in series [2].

On to `O=C(O)c1ccc2c(c1)C(=O)c1cc(C(=O)O)ccc1-2` [Compound 001], for which the IC50 in series [1] (setting [4]) is 610 µM; in series [1] (setting [3]), 600 µM; in series [2] it was 12200 µM.

Take `O=C(O)c1cccc(SCC(=O)c2cccc(C(=O)O)c2)c1` [Compound 217, 3-[2-Oxo-2-(3-carboxyphenyl)ethylsulfanyl]benzoic acid]: the IC50 in series [1] (setting [4]) is 320 µM; in series [1] (setting [3]) it was 360 µM and > 630 µM; in series [2], 6100 µM.
